Structures are written as SMILES.

For test [1], the target named is T1, NPY Y2 receptor (Homo sapiens, UniProt P49146).
T1 sequence (P49146 1-381): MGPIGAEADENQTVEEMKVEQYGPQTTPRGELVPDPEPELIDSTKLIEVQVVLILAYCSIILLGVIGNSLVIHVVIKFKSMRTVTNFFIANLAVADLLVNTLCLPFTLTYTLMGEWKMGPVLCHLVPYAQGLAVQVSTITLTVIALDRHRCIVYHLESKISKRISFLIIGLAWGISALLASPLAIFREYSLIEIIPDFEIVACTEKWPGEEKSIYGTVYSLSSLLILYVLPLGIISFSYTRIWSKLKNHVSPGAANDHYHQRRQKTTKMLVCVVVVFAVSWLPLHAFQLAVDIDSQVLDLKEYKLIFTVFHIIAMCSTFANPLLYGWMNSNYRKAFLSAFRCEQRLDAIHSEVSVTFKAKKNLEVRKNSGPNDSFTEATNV
The test can be described thus: Neuropeptide Y2 pKB assay (FLIPR, KAN-Ts cells stably expressing chimeric G proteins). The note with it: apparent pKB, modified Cheng-Prusoff correction. The format is cell-based. The protocol:
The assay was performed using the fluorimetric imaging plate reader (FLIPR) format as described in Dautzenberg, F. M., Biochemical Pharmacology 2005, 69, 1493.
KAN-Ts cells stably expressing chimeric G proteins were seeded at a density of 100,000 cells into poly-d-lysine coated 384-well blackwall, clear-bottom microtiter plates (Corning, N.Y.). One day later, the medium was removed and 50 μl loading medium DMEM high glucose, without serum, supplemented with 10 mM HEPES-acid, 0.1% BSA, 5 mM probenecid and 2 μM Fluo-3AM was added. Cells were loaded for 1 h at 37° C., washed twice with 50 μl assay buffer (5 mM HEPES-acid, 140 mM NaCl, 1 mM MgCl2, 5 mM KCl, 10 mM glucose) and then 30 μl assay buffer was added. Cells were further pre-incubated at room temperature before adding agonists or agonists plus antagonists in 20 μl assay buffer and then measured on a T-channel fluorometric imaging plate reader (FLIPR, Molecular Devices, Sunnyvale, Calif.). Antagonistic potency values were converted to apparent pKB values using a modified Cheng-Prusoff correction. Apparent pKB was calculated as pKB=−log IC50/1+[conc agonist/EC50].

The target of test [2] is T1, NPY Y2 receptor. The test can be described thus: Neuropeptide Y2 radioligand binding assay ([125I]PYY, KAN-Ts membranes). The note with it: for IC50: KAN-Ts membranes endogenously expressing Y2, [125I]PYY (80 pM), 1 h at rt; for Ki: apparent Ki=IC50/(1+C/KD). The arrangement: endogenous in cells; host or cells: KAN-Ts cells (membrane preparation). The protocol: KAN-Ts endogenously expressing Y2 receptors were used for the radioligand binding assay. Cells were grown to confluence on 150 cm^2 tissue culture plates, washed with phosphate-buffered saline (PBS), and scraped into 50 mL tubes. After centrifugation, the supernatant was aspirated, and the pellets frozen and stored at −80° C. Thawed pellets were homogenized with a polytron tissue grinder for 15 sec in 20 mM Tris-HCl, 5 mM EDTA. The homogenate was centrifuged at 800×g for 5 min and the collected supernatant was recentrifuged at 25000×g for 25 min. The resulting pellet was resuspended in binding buffer (20 mM HEPES, 120 mM NaCl, 0.22 mM KH2PO4, 1.3 mM CaCl2, 0.8 mM MgSO4). Membranes were incubated with [^125I]PYY (80 pM) in the presence or absence of test compound for 1 h at rt. The reaction was stopped by filtration through GF/C filter plates pre-soaked in 0.3% polyethylenimine and subsequently washed with Tris 50 mM, 5 mM EDTA buffer. Plates were dried for 1 h in a 55° C. oven, scintillation fluid was added and the radioactivity was counted in a Packard TopCount. Specific binding to the NPY receptor subtypes was determined by radioactivity that was bound in the presence of […]. Each binding experiment was repeated three to eight times, each in duplicate. IC50 values (i.e. concentration of unlabelled peptide or antagonist required to compete for 50% of specific binding to the radioligand) were calculated using the GraphPad Prism software (GraphPad Software Inc., San Diego Calif.) with a fit to a sigmoidal dose response curve. Apparent K, values were calculated as Ki=IC50/(1+C/KD), where C is concentration of the radioligand.

As for `CCC(CC)C(=O)Nc1ccc(N2CCN(C(c3ccccc3)c3ncco3)CC2)c(F)c1` (single isomer, unassigned) [Compound 59, 2-Ethyl-N-{3-fluoro-4-[4-(oxazol-2-yl-phenyl-methyl)-piperazin-1-yl]-phenyl}-butyramide], the Kb in test [1] was 200 nM. In test [2], the IC50 (as a rule, the concentration at which inhibition is half-maximal) was 96 nM.

As to `CCC(CC)C(=O)Nc1ccc(N2CCN(C(c3ccccc3)c3ncco3)CC2)c(F)c1` (single isomer, unassigned) [Compound 60, 2-Ethyl-N-{3-fluoro-4-[4-(oxazol-2-yl-phenyl-methyl)-piperazin-1-yl]-phenyl}-butyramide], the Kb in test [1] is 63.1 nM. The molecule further registered a 50% inhibitory concentration (IC50) in test [2] of 34 nM.

For `CC[C@@H](C)C(=O)Nc1ccc(N2CCN(C(c3ccccc3)c3ncco3)CC2)c(F)c1` (stereo in doubt) [Compound 91, N-{3-Fluoro-4-[4-(oxazol-2-yl-phenyl-methyl)-piperazin-1-yl]-phenyl}-2-methyl-butyramide], the Kb in test [1] was 158 nM. Besides, the IC50 in test [2] amounted to 240 nM. The like results for `CCc1noc(C(c2ccccc2)N2CCN(c3ccc(NC(=O)C(CC)CC)cc3F)CC2)n1` (centres unmarked) [Compound 1, 2-Ethyl-N-(4-{4-[(3-ethyl-[1,2,4]-oxadiazol-5-yl)-phenyl-methyl]-piperazin-1-yl}-3-fluoro-phenyl)-butyramide] were, in that order, 35.5 nM and 27 nM. On the same counts, the results for `CCC(CC)C(=O)Nc1ccc(N2CCN(C(c3ccccc3)c3nc(C)no3)CC2)c(F)c1` (centres unmarked) [Compound 2, 2-Ethyl-N-(3-fluoro-4-{4-[(3-methyl-[1,2,4]-oxadiazol-5-yl)-phenyl-methyl]-piperazin-1-yl}phenyl)-butyramide] are 39.8 nM and 27 nM. The like results for `CCC(CC)C(=O)Nc1ccc(N2CCN(C(c3ccccc3)c3ccccc3)CC2)c(F)c1` [Compound 4, N-[4-(4-Benzhydryl-piperazin-1-yl)-3-fluoro-phenyl]-2-ethyl-butyramide] were, in that order, 79.4 nM and 33 nM. `CCC(CC)C(=O)Nc1ccc(N2CCN(C(c3ccccc3)c3ncco3)CC2)c(F)c1` (centres unmarked) [Compound 20, 2-Ethyl-N-{3-fluoro-4-[4-(oxazol-2-yl-phenyl-methyl)-piperazin-1-yl]-phenyl}-butyramide]: in test [1], the Kb was 50.1 nM. The IC50 in test [2] was determined as 40 nM. The like results for `CCC(CC)C(=O)Nc1ccc(N2CCN(C(c3ccccc3)c3cccnc3)CC2)c(F)c1` (centres unmarked) [Compound 24, 2-Ethyl-N-{3-fluoro-4-[4-(phenyl-pyridin-3-yl-methyl)-piperazin-1-yl]-phenyl}-butyramide] were, in that order, 79.4 nM and 40 nM. The like results for `CCC(CC)C(=O)Nc1ccc(N2CCN(C(c3ccccc3)c3ccccn3)CC2)c(F)c1` (centres unmarked) [Compound 33, 2-Ethyl-N-{3-fluoro-4-[4-(phenyl-pyridin-2-yl-methyl)-piperazin-1-yl]-phenyl}-butyramide] were, in that order, 20 nM and 18 nM. On the same counts, the results for `CCC(CC)C(=O)Nc1ccc(N2CCN(C(c3ccccc3)c3nccs3)CC2)c(F)c1` (centres unmarked) [Compound 39, 2-Ethyl-N-{3-fluoro-4-[4-(phenyl-thiazol-2-yl-methyl)-piperazin-1-yl]-phenyl}-butyramide] are 63.1 nM and 28 nM.

With `CCC(CC)C(=O)Nc1ccc(N2CCN(C(C3=N[C@H](C(=O)OC)CO3)c3ccccc3)CC2)c(F)c1` (some centres unmarked) [Compound 179, 2-({4-[4-(2-Ethyl-butyrylamino)-2-fluoro-phenyl]-piperazin-1-yl}-phenyl-methyl)-4,5-dihydro-oxazole-4-carboxylic acid methyl ester], the half-maximal inhibitory concentration (IC50) in test [2] was 41 nM.

`CCC(CC)C(=O)Nc1ccc(N2CCN(C(c3ccccc3)c3ncno3)CC2)c(F)c1` (centres unmarked) [Compound 231, 2-Ethyl-N-{3-fluoro-4-[4-([1,2,4]-oxadiazol-5-yl-phenyl-methyl)-piperazin-1-yl]-phenyl}-butyramide] yielded an IC50 in test [2] of 220 nM. Same read-out and setting: for `CCC(CC)C(=O)Nc1ccc(N2CCN(C(C(C)=O)c3ccccc3)CC2)c(F)c1` (centres unmarked) [Compound 232, 2-Ethyl-N-{3-fluoro-4-[4-(2-oxo-1-phenyl-propyl)-piperazin-1-yl]-phenyl}-butyramide] the value was 380 nM. On the same count and under the same terms, the same measure for `CCC(CC)C(=O)Nc1ccc(N2CCN(C(c3ccccc3)c3noc(C(F)(F)F)n3)CC2)c(F)c1` (centres unmarked) [Compound 234, 2-Ethyl-N-(3-fluoro-4-{4-[phenyl-(5-trifluoromethyl-[1,2,4]-oxadiazol-3-yl)-methyl]-piperazin-1-yl}-phenyl)-butyramide]: 120 nM; for `CCC(CC)C(=O)Nc1ccc(N2CCN(C(c3ccccc3)c3nc(C(C)C)no3)CC2)c(F)c1` (centres unmarked) [Compound 241]: 35 nM; for `CCC(CC)C(=O)Nc1ccc(N2CCN(C(c3ccccc3)c3nc(-c4ccccc4)no3)CC2)c(F)c1` (centres unmarked) [Compound 242, 2-Ethyl-N-(3-fluoro-4-{4-[phenyl-(3-phenyl-[1,2,4]-oxadiazol-5-yl)-methyl]-piperazin-1-yl}-phenyl)-butyramide]: 71 nM. Still for that read-out and setting: for `Cc1nc(C(c2ccc(OC(F)(F)F)cc2)N2CCN(c3ccc(NC(=O)C4CCOC4)cc3F)CC2)no1` (centres unmarked) [Compound 280] the value was 430 nM. For `CCC(CC)C(=O)Nc1ccc(N2CCN(C(c3ccc(OC(F)(F)F)cc3)c3noc(C)n3)CC2)c(F)c1` (centres unmarked) [Compound 281], the IC50 in test [2] is 65 nM. Against the preceding molecule, the IC50 is about 6.6-fold lower. Consider `CN(C)CC(=O)Nc1ccc(N2CCN(C(c3ccccc3)c3ccccc3)CC2)c(C#N)c1` [Compound 300, N-[4-(4-Benzhydryl-piperazin-1-yl)-3-cyano-phenyl]-2-dimethylamino-acetamide], for which, in test [2], the Ki stood at 250 nM. As to `Cc1ccccc1C(c1ccccc1)N1CCN(c2ccc(NC(=O)c3c(C)noc3C)cc2C#N)CC1` (centres unmarked) [Compound 301, N-(3-Cyano-4-{4-[(2-methylphenyl)(phenyl)methyl]piperazin-1-yl}phenyl)-3,5-dimethylisoxazole-4-carboxamide], the Ki in test [2] stood at 140 nM. On the same count and under the same terms, the same measure for `CCC(CC)C(=O)Nc1ccc(N2CCN(C(c3ccc(F)cc3)c3ccc(F)cc3)CC2)c(C#N)c1` [Compound 307, N-(4-{4-[Bis(4-fluorophenyl)methyl]piperazin-1-yl}-3-cyanophenyl)-2-ethylbutanamide]: 150 nM; for `Cc1noc(C)c1C(=O)Nc1ccc(N2CCN(C(c3ccc(F)cc3)c3ccc(F)cc3)CC2)c(C#N)c1` [Compound 309, 3,5-Dimethyl-isoxazole-4-carboxylic acid (4-{4-[bis-(4-fluoro-phenyl)methyl]-piperazin-1-yl}-3-cyano-phenyl)-amide]: 740 nM; for `CCC(CC)C(=O)Nc1ccc(N2CCN(C(c3ccccc3)c3ccc(Cl)cc3)CC2)c(C#N)c1` (centres unmarked) [Compound 311, N-(4-{4-[(4-Chloro-phenyl)-phenyl-methyl]-piperazin-1-yl}-3-cyano-phenyl)-2-ethyl-butyramide]: 63 nM. For the molecule `Cc1noc(C)c1C(=O)Nc1ccc(N2CCN(C(c3ccccc3)c3ccc(Cl)cc3)CC2)c(C#N)c1` (centres unmarked) [Compound 312, 3,5-Dimethyl-isoxazole-4-carboxylic acid (4-{4-[(4-chloro-phenyl)-phenyl-methyl]-piperazin-1-yl}-3-cyano-phenyl)-amide], in test [2], the Ki came out at 84 nM.

In the case of `N#Cc1cc(NC(=O)C2CC2)ccc1N1CCN(C(c2ccccc2)c2ccncc2)CC1` (centres unmarked) [Compound 322, Cyclopropanecarboxylic acid {3-cyano-4-[4-(phenyl-pyridin-4-yl-methyl)-piperazin-1-yl]-phenyl}-amide], the Ki in test [2] turned out to be 34 nM.

The values are drawn from patent US20120129870A1, “PIPERAZINYL DERIVATIVES USEFUL AS MODULATORS OF THE NEUROPEPTIDE Y2 RECEPTOR” (priority 2007, published 2012).
